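Five concentrations, 48 hours, 96-well plates. At the GI50, growth is halved.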 Calls of active or inactive are those of the source. No stated cut-off is given here; in the data, active = GI50 up to about 1.1 µM and inactive = higher.

What all share (assay): growth of human tumour cells (NCI), 48 h
The subject of assay [1] is 786-0.
The test system of assay [2] is CAKI-1.
Assay [3] concerns CCRF-CEM.
Assay [4] relates to EKVX.
Assay [5] concerns HCC 2998.
Assay [6] concerns HL-60.
Assay [7] has as its system HOP-62.
The test system of assay [8] is HT-29.
The subject of assay [9] is NCI-H460.
Assay [10] concerns OVCAR-3.
Assay [11] relates to RPMI-8226.
Assay [12] relates to SF-268.
Assay [13] deals with SF-295.
The subject of assay [14] is SK-MEL-28.
Assay [15] deals with SK-MEL-5.
The test system of assay [16] is SK-OV-3.
The subject of assay [17] is SF-539.
Assay [18] relates to DU-145.
For assay [19], the system named is MCF7.

Take `CCOC(=O)C(C)c1c(C(=O)c2ccc(C)nc2)c2ccccc2n1C` (configuration not stated): the GI50 in assay [1], in assay [2], in [3], in assay [4], in assay [5] and in assay [6] was > 100 µM (inactive) throughout. Also, the GI50 in [7] is > 100 µM (inactive); in assay [8], > 100 µM (inactive); in [9], > 100 µM (inactive); in assay [10], > 100 µM (inactive); in assay [11], 72.1 µM (inactive); in assay [12], > 100 µM (inactive). For the same compound, the GI50 in assay [13], in assay [14], in [15] and in assay [16] was > 100 µM (inactive) throughout.

Consider `Cc1cc(N(CCC#N)CCC#N)ccc1/N=N/c1ccc(S(N)(=O)=O)cc1`, for which the GI50 in assay [1] is > 100 µM (inactive); in assay [2] it was 28.4 µM (inactive); in [3], > 100 µM (inactive); in assay [4], > 100 µM (inactive); in assay [5] it was > 100 µM (inactive); in [6], > 100 µM (inactive). For the same compound, the GI50 in assay [7], in [8], in assay [10], in assay [11], in [12] and in assay [13] was > 100 µM (inactive) throughout. The GI50 in [17], in assay [14], in [15] and in [16] was > 100 µM (inactive) throughout.

As to `CC(=O)N1[C@H](C(=O)O)CS[C@H]1c1ccncc1`, the GI50 in [1], in assay [2], in [3], in assay [4], in assay [5] and in [6] was > 100 µM (inactive) throughout. In addition, the GI50 in assay [7], in assay [8], in assay [9], in assay [10], in assay [11] and in assay [12] was > 100 µM (inactive) throughout. Further, the GI50 in assay [13], in assay [17], in assay [14] and in assay [15] was > 100 µM (inactive) each time.

For `CCOC(=O)C1=C(NC)OC/C1=N\NC(=O)c1ccccc1O`, the GI50 in assay [1] is 33.4 µM (inactive); in assay [2], 17.1 µM (inactive); in assay [3], 14.9 µM (inactive); in assay [4] it was 44.6 µM (inactive); in assay [5], 25.1 µM (inactive); in [6] it was 19.3 µM (inactive). Also, the GI50 in assay [7] was 28 µM (inactive); in assay [9], 28.2 µM (inactive); in assay [10], 19.9 µM (inactive); in [11], 32.3 µM (inactive); in assay [12], 6.53 µM (inactive); in [13], 50.9 µM (inactive). Further, the GI50 is 13 µM (inactive) in [17], 30.8 µM (inactive) in assay [14], 35.8 µM (inactive) in assay [15] and > 100 µM (inactive) in assay [16].

For `CSC(SC)=C1Sc2cccc(Cl)c2S1`, the GI50 in assay [1] was 28.5 µM (inactive); in assay [2], 43 µM (inactive); in [3], 28.8 µM (inactive); in assay [4], 35.4 µM (inactive); in assay [5], 15.8 µM (inactive); in assay [6], 18.3 µM (inactive). In addition, the GI50 in assay [7] is > 100 µM (inactive); in [8], 29 µM (inactive); in [9], > 100 µM (inactive); in assay [11] it was 36.2 µM (inactive); in assay [12], > 100 µM (inactive); in [13], 56.5 µM (inactive). For the same compound, the GI50 in [17] is 74.6 µM (inactive); in assay [14], > 100 µM (inactive); in [15], 33.3 µM (inactive); in [16] it was 98.4 µM (inactive).

Turning to `CCOC(=S)SSSC(=S)OCC`, the GI50 was 15.2 µM (inactive) in [1]; 29.9 µM (inactive) in assay [2]; 30.5 µM (inactive) in assay [3]; 21 µM (inactive) in assay [18]; 48.5 µM (inactive) in assay [4]; 68.4 µM (inactive) in [5]. The GI50 was 76.6 µM (inactive) in assay [6]; 30.3 µM (inactive) in assay [7]; 54.3 µM (inactive) in assay [8]; 28.2 µM (inactive) in assay [19]; 30.7 µM (inactive) in [9]; 26.4 µM (inactive) in [10]. The GI50 in assay [11] was 24 µM (inactive); in assay [12] it was 71.3 µM (inactive); in assay [13] it was 51.5 µM (inactive); in assay [17] it was 67.1 µM (inactive); in assay [14], > 100 µM (inactive); in [15] it was 36.1 µM (inactive). Besides, the GI50 in [16] was > 100 µM (inactive).

Turning to `CCOc1ccccc1NC(=O)C(C#N)C1=C(Cl)C(=O)c2ccccc2C1=O` (configuration not stated), the GI50 was 1.79 µM (inactive) in [1]; 2.76 µM (inactive) in assay [2]; 0.867 µM (active) in [3]; 1.5 µM (inactive) in assay [4]; 1.75 µM (inactive) in assay [5]; 0.486 µM (active) in assay [6]. The GI50 is 6.04 µM (inactive) in [7]; 2.29 µM (inactive) in assay [8]; 1.79 µM (inactive) in assay [9]; 1.6 µM (inactive) in assay [10]; 1.58 µM (inactive) in assay [11]; 2.11 µM (inactive) in [12]. Also, the GI50 in assay [13] was 1.72 µM (inactive); in assay [17], 2.12 µM (inactive); in assay [14], 2.03 µM (inactive); in assay [15], 1.5 µM (inactive); in assay [16] it was 26.2 µM (inactive).

On to `NC(=O)CCC(NC(=O)c1cccc2c(=O)c3ccccc3[nH]c12)C(=O)O` (configuration not stated), for which the GI50 in assay [1], in assay [18], in [4], in assay [6], in [7] and in [8] was > 100 µM (inactive) throughout. Moreover, the GI50 in assay [19], in [10], in [11], in assay [12], in [13] and in assay [14] was > 100 µM (inactive) in each case. Besides, the GI50 in [15] and in [16] was > 100 µM (inactive) throughout.

Regarding `O/N=C(\CC(O)(C(F)(F)F)C(F)(F)F)c1cccc(Cl)c1`, the GI50 in [1] is 35.5 µM (inactive); in assay [2] it was 21.5 µM (inactive); in assay [3], 19.8 µM (inactive); in [18] it was 40.6 µM (inactive); in assay [4] it was 22.2 µM (inactive); in assay [5], 60 µM (inactive). Also, the GI50 in assay [6] was 23.5 µM (inactive); in assay [8], 69.2 µM (inactive); in [19], 35 µM (inactive); in assay [9], 43.3 µM (inactive); in assay [10], 19.8 µM (inactive); in [11], 29.9 µM (inactive). Further, the GI50 in assay [13] is 38.7 µM (inactive); in assay [17], 28.6 µM (inactive); in assay [14], 41.1 µM (inactive); in [15], 16.6 µM (inactive); in [16], 22.7 µM (inactive).

For the compound `S=P1(c2ccccc2)Nc2ccc(Cl)cc2N1` (configuration not stated), the GI50 in assay [1] was > 100 µM (inactive); in assay [2], 32.6 µM (inactive); in [3], 4.45 µM (inactive); in [4] it was > 100 µM (inactive); in [5] it was > 100 µM (inactive); in [6], 7.48 µM (inactive). The GI50 in assay [7] is > 100 µM (inactive); in [8], > 100 µM (inactive); in [9], > 100 µM (inactive); in assay [10] it was > 100 µM (inactive); in assay [11] it was 4.68 µM (inactive); in assay [12], > 100 µM (inactive). The GI50 in [13] is > 100 µM (inactive); in assay [17], > 100 µM (inactive); in assay [14], > 100 µM (inactive); in assay [15] it was > 100 µM (inactive); in [16] it was 37.5 µM (inactive).

`Cc1[nH]c2ccccc2c1C1CC(=O)NC1=O` (configuration not stated): the GI50 in assay [1], in [2], in assay [3], in assay [4], in assay [5] and in assay [6] was > 100 µM (inactive) throughout. Also, the GI50 in [7] was > 100 µM (inactive); in [8], > 10 µM (inactive); in [9] it was > 100 µM (inactive); in [10] it was > 100 µM (inactive); in assay [11], > 100 µM (inactive); in assay [13], > 100 µM (inactive). Moreover, the GI50 in assay [17], in [14], in [15] and in assay [16] was > 100 µM (inactive) each time.

Regarding `O=C1C=CC(=C(c2ccc(O)cc2)c2ccc(O)cc2)C=C1` [AURIN], the GI50 in assay [1] is 13.6 µM (inactive); in assay [2], 15.2 µM (inactive); in [3] it was 2.39 µM (inactive); in assay [4], 15.1 µM (inactive); in [5], 14.4 µM (inactive); in assay [6] it was 2.86 µM (inactive). The GI50 in [7] was 20.2 µM (inactive); in assay [8], 18.6 µM (inactive); in assay [9], 15.8 µM (inactive); in assay [10] it was 7 µM (inactive); in [11] it was 3.85 µM (inactive); in assay [12] it was 13.2 µM (inactive). For the same compound, the GI50 in assay [13] was 12.5 µM (inactive); in [17], 11.3 µM (inactive); in [14] it was 12.1 µM (inactive); in [15], 7.06 µM (inactive); in assay [16], 17.9 µM (inactive).

For the origin of these results see ChEMBL document CHEMBL1201862, “PubChem BioAssay data set” (2004).
